Here are results for three molecules from article PMC4508061, “Selectivity Profiling and Biological Activity of Novel β-Carbolines as Potent and Selective DYRK1 Kinase Inhibitors” (PLoS ONE, 2015).

Like-named read-outs stand apart in the source and are kept apart here.

The target in experiment [1] is T1, DYRK1A (Homo sapiens, UniProt Q13627).
T1 construct: purchased ProQinase (Freiburg, Germany)
Nature of the experiment: Kinase-GLO luminescent kinase assay. Format: biochemical. Conditions: 1 μM compound; means of at least 3 measurements. How it is done:
(§1) Bacterial expression plasmids for GST-DYRK1A-ΔC and GST-DYRK2 have been described earlier. […] Expression in logarithmically growing E. coli culture was performed for 3 h at 37°C (GST-DYRK1A-ΔC and GST-DYRK2), 3 h at 26°C (GST-HIPK2cat), over night at 28°C (GST-CLK1cat) or over night at room temperature (GST-DYRK1Bcat).
(§2) Compounds were screened for inhibitory effects against GST-DYRK1A-ΔC, GST-DYRK1Bcat, GST-DYRK2, GST-CLK1cat or GST-HIPK2cat using the Kinase-GLO Luminescent Kinase Assay from Promega. Assays were performed in a total volume of 10 μL in kinase-buffer (25 mM Hepes pH 7.4, 0.5 mM DTT, 5 mM MgCl2, 5 μM ATP) with appropriate peptide substrates (20 μM DYRKtide for the DYRKs and 100 μM DYRKtide for HIPK2, […]; or 100 μM RS domain-derived peptide for CLK1, […]). Assays were started with this amount of a kinase preparation that consumed approximately 90% of the ATP in the assay (linear range of the kinase titration curve). The reactions were run at room temperature for 30 min before 10 μL Kinase-GLO reagent was added. After incubation at room temperature for additional 10 min, luminescence was recorded for 1 s.
On the technique in general: Kinase-Glo reads ATP consumption through a luciferase reaction.

Experiment [2] concerns the target T2, DYRK2 (Homo sapiens, UniProt Q92630).
T2 construct: purchased ProQinase (Freiburg, Germany)
T2 sequence (Q92630 1-601): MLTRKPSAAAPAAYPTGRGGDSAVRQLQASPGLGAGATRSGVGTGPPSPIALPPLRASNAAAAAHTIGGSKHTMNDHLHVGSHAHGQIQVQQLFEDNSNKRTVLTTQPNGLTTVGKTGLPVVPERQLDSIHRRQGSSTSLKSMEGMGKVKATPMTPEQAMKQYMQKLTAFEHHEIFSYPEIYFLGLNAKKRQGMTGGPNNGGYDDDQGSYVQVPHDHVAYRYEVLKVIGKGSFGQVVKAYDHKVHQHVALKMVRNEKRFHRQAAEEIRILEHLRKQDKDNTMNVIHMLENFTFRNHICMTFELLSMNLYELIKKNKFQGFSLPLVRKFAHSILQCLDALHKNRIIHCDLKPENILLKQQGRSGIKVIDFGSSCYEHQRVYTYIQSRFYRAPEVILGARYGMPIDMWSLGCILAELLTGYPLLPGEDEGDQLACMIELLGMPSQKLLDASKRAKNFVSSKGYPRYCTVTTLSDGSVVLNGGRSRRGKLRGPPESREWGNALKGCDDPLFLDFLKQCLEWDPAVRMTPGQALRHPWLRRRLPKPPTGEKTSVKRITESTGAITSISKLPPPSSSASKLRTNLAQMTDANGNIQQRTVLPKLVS
As to the kind of experiment: Kinase-GLO luminescent kinase assay. Format: biochemical. Conditions: 1 μM compound; means of at least 3 measurements. How it is done: as §1, §2

In experiment [3] the test system is DYRK1A. Conditions: cited from earlier work.
The target of experiment [4] is T2, DYRK2. Conditions: cited from earlier work.
The next experiment concerns Haspin. Conditions: ref Cuny et al. 38; cited from earlier work.
The target in experiment [5] is T3, CLK1 (Homo sapiens, UniProt P49759). Nature of the experiment: Kinase-GLO luminescent kinase assay. Format: biochemical. The arrangement: made in house; host or cells: E. coli. Conditions: 1 μM compound; means of at least 3 measurements. How it is done: as §1, §2
In experiment [6] the target is T4, DYRK1B (Homo sapiens, UniProt Q9Y463). Nature of the experiment: Kinase-GLO luminescent kinase assay. It is filed as biochemical. Further details: made in house; host or cells: E. coli. Conditions: 1 μM compound; means of at least 3 measurements. How it is done:
as §1, §2

For experiment [7], the target named is T5, HIPK2 (Homo sapiens, UniProt Q9H2X6). As to the kind of experiment: Kinase-GLO luminescent kinase assay. It is filed as biochemical. Further details: made in house; host or cells: E. coli. Conditions: 10 μM compound; means of at least 3 measurements. How it is done:
as §1, §2

Experiment [8] deals with T3, CLK1. Further details: purchased ProQinase (Freiburg, Germany). Conditions: cited from earlier work.
The target of experiment [9] is T4, DYRK1B. The arrangement: purchased ProQinase (Freiburg, Germany). Conditions: cited from earlier work.
Another experiment has as its target HIPK1 (Homo sapiens, UniProt Q86Z02). Further details: purchased ProQinase (Freiburg, Germany). Conditions: cited from earlier work.
Experiment [10] has as its target T5, HIPK2. The arrangement: purchased ProQinase (Freiburg, Germany). Conditions: cited from earlier work.
The target of the next experiment is HIPK3 (Homo sapiens, UniProt Q9H422). The arrangement: purchased ProQinase (Freiburg, Germany). Conditions: cited from earlier work.
Sequence of HIPK3 (Q9H422 whole entry): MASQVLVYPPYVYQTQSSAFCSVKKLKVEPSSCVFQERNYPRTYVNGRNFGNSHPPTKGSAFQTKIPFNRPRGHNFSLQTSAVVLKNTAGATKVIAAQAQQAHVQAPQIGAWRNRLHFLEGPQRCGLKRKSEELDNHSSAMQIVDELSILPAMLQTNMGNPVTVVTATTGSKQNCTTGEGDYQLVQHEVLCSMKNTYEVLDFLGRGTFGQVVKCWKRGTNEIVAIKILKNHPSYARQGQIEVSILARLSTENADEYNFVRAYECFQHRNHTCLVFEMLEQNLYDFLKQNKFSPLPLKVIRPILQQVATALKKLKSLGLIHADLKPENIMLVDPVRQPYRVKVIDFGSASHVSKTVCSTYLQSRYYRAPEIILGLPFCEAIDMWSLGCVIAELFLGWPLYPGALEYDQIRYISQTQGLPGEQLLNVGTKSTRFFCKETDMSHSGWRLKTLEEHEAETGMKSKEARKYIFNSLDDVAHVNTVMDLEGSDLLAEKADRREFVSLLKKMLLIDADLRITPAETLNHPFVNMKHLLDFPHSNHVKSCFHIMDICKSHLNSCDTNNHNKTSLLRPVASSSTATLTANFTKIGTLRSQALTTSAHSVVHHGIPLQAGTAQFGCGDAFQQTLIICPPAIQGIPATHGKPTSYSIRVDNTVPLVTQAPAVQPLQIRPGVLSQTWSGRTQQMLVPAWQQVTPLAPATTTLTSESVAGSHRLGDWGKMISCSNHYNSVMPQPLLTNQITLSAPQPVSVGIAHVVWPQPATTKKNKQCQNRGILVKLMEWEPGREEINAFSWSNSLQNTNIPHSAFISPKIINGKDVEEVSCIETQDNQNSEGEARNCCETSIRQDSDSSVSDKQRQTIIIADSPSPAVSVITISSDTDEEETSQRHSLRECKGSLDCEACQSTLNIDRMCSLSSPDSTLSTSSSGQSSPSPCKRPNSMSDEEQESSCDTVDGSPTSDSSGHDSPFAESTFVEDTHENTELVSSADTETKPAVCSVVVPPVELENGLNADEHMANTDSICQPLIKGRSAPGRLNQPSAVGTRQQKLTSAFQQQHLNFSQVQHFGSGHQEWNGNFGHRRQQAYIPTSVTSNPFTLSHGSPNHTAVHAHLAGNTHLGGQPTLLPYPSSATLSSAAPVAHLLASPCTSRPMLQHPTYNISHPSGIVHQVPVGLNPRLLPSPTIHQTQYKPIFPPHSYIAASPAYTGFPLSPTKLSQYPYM
The next experiment has as its target T6, HIPK4 (Homo sapiens, UniProt Q8NE63).
T6 sequence (Q8NE63 1-616): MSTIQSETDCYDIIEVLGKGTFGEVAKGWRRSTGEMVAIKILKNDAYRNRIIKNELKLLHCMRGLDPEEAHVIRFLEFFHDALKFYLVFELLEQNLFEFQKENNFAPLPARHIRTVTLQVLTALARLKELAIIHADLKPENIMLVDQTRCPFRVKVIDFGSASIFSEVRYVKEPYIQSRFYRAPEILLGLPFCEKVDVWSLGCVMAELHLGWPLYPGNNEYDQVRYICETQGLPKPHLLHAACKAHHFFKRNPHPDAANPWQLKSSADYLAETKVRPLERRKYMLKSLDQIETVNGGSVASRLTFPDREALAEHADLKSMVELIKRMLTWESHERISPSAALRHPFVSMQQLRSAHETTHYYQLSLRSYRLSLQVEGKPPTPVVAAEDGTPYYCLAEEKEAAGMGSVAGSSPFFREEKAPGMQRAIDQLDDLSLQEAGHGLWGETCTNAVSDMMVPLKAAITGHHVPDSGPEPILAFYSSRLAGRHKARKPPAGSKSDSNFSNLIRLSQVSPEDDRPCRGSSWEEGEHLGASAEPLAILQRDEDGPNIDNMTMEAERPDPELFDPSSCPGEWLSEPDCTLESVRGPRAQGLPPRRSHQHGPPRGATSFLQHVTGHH
The arrangement: purchased ProQinase (Freiburg, Germany). Conditions: cited from earlier work.

The target in a further experiment is IRAK1 (Homo sapiens, UniProt P51617). Further details: purchased ProQinase (Freiburg, Germany). Conditions: 10 μM; cited from earlier work.
The next experiment addresses PIM1 (Homo sapiens, UniProt P11309). Further details: purchased ProQinase (Freiburg, Germany). Conditions: cited from earlier work.
Another experiment concerns the target PIM2 (Homo sapiens, UniProt Q9P1W9). The arrangement: purchased ProQinase (Freiburg, Germany). Conditions: cited from earlier work.
The target of the next experiment is PIM3 (Homo sapiens, UniProt Q86V86). The arrangement: purchased ProQinase (Freiburg, Germany). Conditions: cited from earlier work.
For another experiment, the target named is T7, CLK2 (Homo sapiens, UniProt P49760).
T7 construct: purchased ProQinase (Freiburg, Germany)
T7 sequence (P49760 whole entry): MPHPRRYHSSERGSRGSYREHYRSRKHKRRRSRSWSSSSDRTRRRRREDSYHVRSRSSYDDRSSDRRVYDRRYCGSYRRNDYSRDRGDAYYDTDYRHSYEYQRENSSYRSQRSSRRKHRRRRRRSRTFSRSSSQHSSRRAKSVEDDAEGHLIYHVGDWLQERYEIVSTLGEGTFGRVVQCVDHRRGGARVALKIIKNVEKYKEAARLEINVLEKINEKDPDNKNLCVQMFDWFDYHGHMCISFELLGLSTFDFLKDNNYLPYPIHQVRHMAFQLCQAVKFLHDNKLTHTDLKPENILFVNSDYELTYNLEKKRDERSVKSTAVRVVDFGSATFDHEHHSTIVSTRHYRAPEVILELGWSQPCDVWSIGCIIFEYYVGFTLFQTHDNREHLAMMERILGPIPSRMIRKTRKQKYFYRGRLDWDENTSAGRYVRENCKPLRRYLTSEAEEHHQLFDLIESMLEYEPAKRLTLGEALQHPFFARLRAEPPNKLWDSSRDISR
Conditions: cited from earlier work.

The target of another experiment is T8, CLK3 (Homo sapiens, UniProt P49761).
T8 construct: purchased ProQinase (Freiburg, Germany)
T8 sequence (P49761 whole entry): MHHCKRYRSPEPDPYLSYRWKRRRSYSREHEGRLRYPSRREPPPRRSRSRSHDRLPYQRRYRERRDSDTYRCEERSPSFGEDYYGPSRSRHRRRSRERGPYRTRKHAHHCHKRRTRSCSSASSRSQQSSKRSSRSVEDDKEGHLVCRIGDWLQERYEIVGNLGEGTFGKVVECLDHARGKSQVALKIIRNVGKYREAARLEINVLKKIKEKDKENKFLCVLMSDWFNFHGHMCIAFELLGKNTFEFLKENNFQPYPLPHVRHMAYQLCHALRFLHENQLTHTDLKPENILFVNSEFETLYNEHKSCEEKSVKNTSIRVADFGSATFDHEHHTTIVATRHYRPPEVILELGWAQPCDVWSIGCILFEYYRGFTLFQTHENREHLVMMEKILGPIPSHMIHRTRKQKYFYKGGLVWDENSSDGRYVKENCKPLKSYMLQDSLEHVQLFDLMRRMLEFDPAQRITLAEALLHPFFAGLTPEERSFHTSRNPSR
Conditions: cited from earlier work.

Another experiment addresses T9, DYRK3 (Homo sapiens, UniProt O43781).
T9 construct: purchased ProQinase (Freiburg, Germany)
T9 sequence (O43781 1-588): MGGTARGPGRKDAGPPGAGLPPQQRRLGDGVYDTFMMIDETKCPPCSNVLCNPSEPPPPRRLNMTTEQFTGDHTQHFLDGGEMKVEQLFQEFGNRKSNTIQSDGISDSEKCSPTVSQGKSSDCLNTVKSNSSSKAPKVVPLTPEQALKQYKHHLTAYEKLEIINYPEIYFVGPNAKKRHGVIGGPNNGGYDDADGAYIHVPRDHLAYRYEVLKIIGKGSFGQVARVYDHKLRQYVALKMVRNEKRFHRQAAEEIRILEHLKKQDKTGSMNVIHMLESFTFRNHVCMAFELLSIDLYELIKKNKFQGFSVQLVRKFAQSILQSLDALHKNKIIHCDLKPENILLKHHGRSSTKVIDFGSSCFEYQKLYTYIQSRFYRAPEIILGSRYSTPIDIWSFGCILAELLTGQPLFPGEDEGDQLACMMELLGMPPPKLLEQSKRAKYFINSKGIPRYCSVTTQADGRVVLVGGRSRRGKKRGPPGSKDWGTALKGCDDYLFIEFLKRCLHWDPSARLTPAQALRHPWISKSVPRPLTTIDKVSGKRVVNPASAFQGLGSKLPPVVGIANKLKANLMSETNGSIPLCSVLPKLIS
Conditions: cited from earlier work.

A further experiment concerns the target T10, DYRK4 (Homo sapiens, UniProt Q9NR20).
T10 construct: purchased ProQinase (Freiburg, Germany)
Conditions: cited from earlier work.

Sequence of PIM1 (P11309 whole entry): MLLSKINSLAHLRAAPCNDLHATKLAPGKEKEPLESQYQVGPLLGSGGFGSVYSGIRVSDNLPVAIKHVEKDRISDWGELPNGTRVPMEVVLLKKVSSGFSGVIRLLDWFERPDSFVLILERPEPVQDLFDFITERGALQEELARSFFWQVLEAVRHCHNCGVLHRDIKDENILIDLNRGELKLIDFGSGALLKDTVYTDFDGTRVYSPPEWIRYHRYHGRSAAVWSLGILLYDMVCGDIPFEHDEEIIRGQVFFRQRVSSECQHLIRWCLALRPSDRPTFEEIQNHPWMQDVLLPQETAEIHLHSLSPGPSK
Sequence of HIPK1 (Q86Z02 whole entry): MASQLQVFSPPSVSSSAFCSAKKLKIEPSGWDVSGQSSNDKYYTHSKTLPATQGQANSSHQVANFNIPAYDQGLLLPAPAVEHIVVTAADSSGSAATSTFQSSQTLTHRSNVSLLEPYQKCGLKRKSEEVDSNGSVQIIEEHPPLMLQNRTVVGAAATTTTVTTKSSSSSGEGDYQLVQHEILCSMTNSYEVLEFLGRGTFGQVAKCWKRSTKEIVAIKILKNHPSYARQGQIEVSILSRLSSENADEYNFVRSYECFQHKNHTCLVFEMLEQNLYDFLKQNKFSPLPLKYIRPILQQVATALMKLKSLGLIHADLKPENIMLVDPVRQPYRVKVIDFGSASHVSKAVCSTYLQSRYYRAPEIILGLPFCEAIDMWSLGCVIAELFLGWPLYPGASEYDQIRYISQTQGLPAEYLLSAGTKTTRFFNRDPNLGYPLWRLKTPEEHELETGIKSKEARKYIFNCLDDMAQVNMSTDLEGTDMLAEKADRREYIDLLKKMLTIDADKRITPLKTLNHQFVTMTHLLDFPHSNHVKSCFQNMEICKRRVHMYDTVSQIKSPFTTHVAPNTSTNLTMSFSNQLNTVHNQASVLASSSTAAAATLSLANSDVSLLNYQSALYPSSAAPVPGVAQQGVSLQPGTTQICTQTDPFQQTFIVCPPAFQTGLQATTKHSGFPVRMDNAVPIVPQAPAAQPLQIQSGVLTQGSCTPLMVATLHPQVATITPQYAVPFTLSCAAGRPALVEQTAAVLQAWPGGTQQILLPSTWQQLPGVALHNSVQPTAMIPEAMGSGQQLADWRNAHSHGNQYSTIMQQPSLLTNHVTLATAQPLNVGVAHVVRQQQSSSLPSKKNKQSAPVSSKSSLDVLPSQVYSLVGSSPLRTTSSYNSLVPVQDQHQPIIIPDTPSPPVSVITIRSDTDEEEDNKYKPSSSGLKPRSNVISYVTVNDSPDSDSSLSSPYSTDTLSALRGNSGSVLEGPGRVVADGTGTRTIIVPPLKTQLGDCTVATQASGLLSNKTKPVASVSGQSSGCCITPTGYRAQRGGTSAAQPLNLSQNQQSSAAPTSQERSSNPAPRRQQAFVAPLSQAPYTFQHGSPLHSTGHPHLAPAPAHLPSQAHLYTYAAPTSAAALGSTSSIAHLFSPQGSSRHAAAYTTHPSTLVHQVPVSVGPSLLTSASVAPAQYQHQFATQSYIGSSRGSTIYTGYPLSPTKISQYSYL
Sequence of PIM2 (Q9P1W9 whole entry): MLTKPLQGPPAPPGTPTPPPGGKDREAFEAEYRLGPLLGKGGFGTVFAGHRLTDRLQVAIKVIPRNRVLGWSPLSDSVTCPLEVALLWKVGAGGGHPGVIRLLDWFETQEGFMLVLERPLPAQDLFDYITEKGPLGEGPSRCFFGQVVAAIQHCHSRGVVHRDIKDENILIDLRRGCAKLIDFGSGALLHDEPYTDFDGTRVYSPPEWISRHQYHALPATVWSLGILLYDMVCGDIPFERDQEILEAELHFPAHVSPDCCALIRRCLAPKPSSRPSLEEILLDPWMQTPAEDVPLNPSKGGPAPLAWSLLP
T10 sequence (Q9NR20 whole entry): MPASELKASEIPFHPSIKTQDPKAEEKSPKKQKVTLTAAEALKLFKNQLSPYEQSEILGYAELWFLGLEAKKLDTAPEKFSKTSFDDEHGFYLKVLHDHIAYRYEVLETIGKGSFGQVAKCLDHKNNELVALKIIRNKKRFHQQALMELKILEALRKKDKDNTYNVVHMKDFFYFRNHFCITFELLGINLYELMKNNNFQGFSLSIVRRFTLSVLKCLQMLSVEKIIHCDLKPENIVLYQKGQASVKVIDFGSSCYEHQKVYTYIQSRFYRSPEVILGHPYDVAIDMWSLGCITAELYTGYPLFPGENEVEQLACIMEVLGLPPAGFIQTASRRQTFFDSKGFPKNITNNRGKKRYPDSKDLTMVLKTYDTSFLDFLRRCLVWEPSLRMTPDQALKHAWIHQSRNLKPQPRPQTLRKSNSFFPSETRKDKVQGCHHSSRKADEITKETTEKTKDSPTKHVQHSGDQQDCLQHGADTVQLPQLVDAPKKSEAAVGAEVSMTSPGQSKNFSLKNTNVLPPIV

As a reminder, the IC50 is the point on the concentration scale where inhibition reaches its midpoint. Turning to `COc1ccc2c(c1)[nH]c1c(C)nccc12` [Harmine, harmine], the “Residual activity (% of control) DYRK1A” value on DYRK1A [1] is 27 % of control. For the same molecule, the “Residual activity (% of control) DYRK2” value at DYRK2 [2] is 92 % of control. Moreover, the “Residual activity (% of control)” value in the experiment on DYRK1A [3] (1 μM) was […]; in the experiment with DYRK1A [3] (10 μM) it was […]; on DYRK2 [4] (1 μM) it was 35 % of control; at DYRK2 [4] (10 μM), 61 % of control; on CLK1 [8] (10 μM), […]; on DYRK1B [9] (10 μM), […]. The “Residual activity (% of control)” value at HIPK1 (1 μM) is on record as 119 % of control; on HIPK1 (10 μM), 14 % of control; at HIPK2 [10] (1 μM), 68 % of control; on HIPK2 [10] (10 μM), 34 % of control; at HIPK3 (1 μM), 118 % of control; on HIPK3 (10 μM), 44 % of control. The “Residual activity (% of control)” value at HIPK4 (10 μM) was 90 % of control; at IRAK1, 66 % of control; at PIM1 (1 μM), 74 % of control; on PIM1 (10 μM), 85 % of control; on PIM2 (1 μM), 101 % of control; on PIM2 (10 μM) it was 43 % of control. For the same molecule, the “Residual activity (% of control)” value at PIM3 (1 μM) is 74 % of control; on PIM3 (10 μM), 78 % of control. The half-inhibitory concentration (IC50) in the experiment on DYRK1A [3] (range of published values, read-out: Inhibition of DYRK1A IC50) was […]; in the experiment on Haspin, 590 nM. Moreover, the “Residual activity (% of control) CLK1” value on CLK1 [5] is recorded as 23 % of control. At DYRK1B [6], the “Residual activity (% of control) DYRK1B” value is 11 % of control. For the same molecule, the “Residual activity (% of control) HIPK2” value on HIPK2 [7] is reported as 79 % of control.
On to `CCN1/C(=C/C(C)=O)Sc2ccc(O)cc21` [INDY], for which the “Residual activity (% of control)” value on CLK2 (10 μM) is on record as 12 % of control; at CLK3 (10 μM), 30 % of control; at DYRK2 [4] (10 μM), 3 % of control; at DYRK3 (10 μM), 0 % of control; on DYRK4 (10 μM) it was 13 % of control; at CLK1 [8] (10 μM), 1 % of control. Further, the entries for the “Residual activity (% of control)” value on HIPK1 (10 μM) and on PIM1 (10 μM) were 64 % of control and 2 % of control, respectively. Besides, in the experiment with DYRK1A [3] (given because %-activity values are not given in the reference, read-out: IC50), the IC50 was […].
For `c1ccc(-c2cc(-c3cncs3)cs2)cc1` [Thiophene 29], the “Residual activity (% of control)” value on CLK2 (5 μM) is 28 % of control; at CLK3 (5 μM) it was 88 % of control; in the experiment on DYRK1A [3] (5 μM) it was 10 % of control; on DYRK2 [4] (5 μM), 7 % of control; on DYRK3 (5 μM) it was 34 % of control; on DYRK4 (5 μM), 87 % of control. In addition, the “Residual activity (% of control)” value is reported as 4 % of control on CLK1 [8] (5 μM); 0 % of control on DYRK1B [9] (5 μM); 96 % of control at HIPK1 (5 μM); 93 % of control on HIPK4 (5 μM); 78 % of control at PIM1 (5 μM); 93 % of control on PIM2 (5 μM).
